Experimental data from patent publication US20260327191A1, “GSK3a INHIBITORS AND METHODS OF USE THEREOF” (Blueprint Medicines Corporation, priority 2023, published 2026).

Columns and labels:
GSK3B [1] = target: T1, GSK3B (Homo sapiens, UniProt P49841); test: NanoBRET cellular target engagement assay, Nanoluc-GSK3B in HEK293 cells; assay type: cell-based; design: expressed in transfected cells; conditions: NanoBRET GSK3β IC50, HEK293 cells, tracer K-8, 2 hours, 37° C
human GSK3α = target: T2, human GSK3α (Homo sapiens, UniProt P49840); test: In vitro enzymatic activity assay, GSK3α; assay type: biochemical; conditions: 1.0 mM ATP, 1.0 μM peptide substrate, 120 min, 25° C, read-out: Enzyme GSK3α (IC50)
T2 construct: Full length human GSK3α or GSK3B expressed as N-terminal GST fusion proteins; GST (N); purchased Carna Biosciences (Japan); host or cells: baculovirus host

GSK3A = target: T3, GSK3A (Homo sapiens, UniProt P49840); test: NanoBRET cellular target engagement assay, Nanoluc-GSK3A in HEK293 cells; assay type: cell-based; conditions: NanoBRET GSK3α IC50, HEK293 cells, tracer K-8, 2 hours, 37° C
T3 construct: expressed in transfected cells

GSK3B [2] = target: T1, GSK3B; test: In vitro enzymatic activity assay, GSK3β; assay type: biochemical; design: Full length human GSK3α or GSK3B expressed as N-terminal GST fusion proteins; GST (N); purchased Carna Biosciences (Japan); host or cells: baculovirus host; conditions: 1.0 mM ATP, 1.0 μM peptide substrate, 120 min, 25° C, read-out: Enzyme GSK3β (IC50)

T1 sequence (P49841 whole entry): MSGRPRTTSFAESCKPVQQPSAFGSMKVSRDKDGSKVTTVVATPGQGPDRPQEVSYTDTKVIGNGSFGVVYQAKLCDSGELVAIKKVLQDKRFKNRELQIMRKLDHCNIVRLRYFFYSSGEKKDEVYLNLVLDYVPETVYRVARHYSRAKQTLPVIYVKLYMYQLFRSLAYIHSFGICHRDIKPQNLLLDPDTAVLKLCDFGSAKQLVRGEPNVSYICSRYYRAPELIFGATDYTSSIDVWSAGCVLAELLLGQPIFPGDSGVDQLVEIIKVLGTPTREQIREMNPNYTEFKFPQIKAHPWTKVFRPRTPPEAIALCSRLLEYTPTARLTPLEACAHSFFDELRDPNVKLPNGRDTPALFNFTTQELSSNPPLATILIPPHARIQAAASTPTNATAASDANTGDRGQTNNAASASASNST
T2 sequence (P49840 whole entry, the tested form may be a part): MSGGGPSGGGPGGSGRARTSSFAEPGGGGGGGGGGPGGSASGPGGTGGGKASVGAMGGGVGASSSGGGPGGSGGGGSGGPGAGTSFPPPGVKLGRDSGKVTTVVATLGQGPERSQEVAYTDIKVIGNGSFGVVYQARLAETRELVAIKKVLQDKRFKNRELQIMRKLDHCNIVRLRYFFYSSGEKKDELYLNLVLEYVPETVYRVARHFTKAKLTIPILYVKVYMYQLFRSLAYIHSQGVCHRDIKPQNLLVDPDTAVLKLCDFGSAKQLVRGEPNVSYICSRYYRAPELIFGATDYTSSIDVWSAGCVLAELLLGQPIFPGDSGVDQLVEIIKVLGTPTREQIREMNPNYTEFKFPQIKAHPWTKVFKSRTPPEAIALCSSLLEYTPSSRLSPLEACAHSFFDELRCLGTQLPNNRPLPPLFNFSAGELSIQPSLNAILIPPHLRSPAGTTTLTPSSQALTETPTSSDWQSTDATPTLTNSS
T3 sequence (P49840 whole entry): as the sequence (P49840 whole entry, the tested form may be a part) above

Compound | IC50 (GSK3B [1]) | IC50 (human GSK3α) | IC50 (GSK3A) | IC50 (GSK3B [2])
COCc1cc(Cl)c(-n2cnc(N)c(C(=O)Nc3cncc([C@@H](C)N)c3)c2=O)c(Cl)c1 (single isomer, unassigned) [Example 67, (S)-4-amino-N-(5-(1-aminoethyl)pyridin-3-yl)-1-(2,6-dichloro-4-(methoxymethyl)phenyl)-6-oxo-1,6-dihydropyrimidine-5-carboxamide or (R)-4-amino-N-(5-(1-aminoethyl)pyridin-3-yl)-1-(2,6-dichloro-4-(methoxymethyl)phenyl)-6-oxo-1,6-dihydropyrimidine-5-carboxamide] | 73.4 nM | 2.1 nM | 1.4 nM | 105 nM
Cc1cc(C(F)CF)cc(C)c1-n1cnc(N)c(C(=O)Nc2cncc(C3CCCCCN3)c2)c1=O (single isomer, unassigned) [Example 115] | 281 nM | 7.6 nM | 4.7 nM | 362 nM
CNC(C)c1cncc(NC(=O)c2c(N)ncn(-c3c(Cl)cc(C#N)cc3Cl)c2=O)c1 (single isomer, unassigned) [Example 9, (R)-4-amino-1-(2,6-dichloro-4-cyanophenyl)-N-(5-(1-(methylamino)ethyl)pyridin-3-yl)-6-oxo-1,6-dihydropyrimidine-5-carboxamide or (S)-4-amino-1-(2,6-dichloro-4-cyanophenyl)-N-(5-(1-(methylamino)ethyl)pyridin-3-yl)-6-oxo-1,6-dihydropyrimidine-5-carboxamide] | 430 nM | 9.5 nM | 7.4 nM | 661 nM
Cc1cc(C(C)(F)F)cc(C)c1-n1cnc(N)c(C(=O)Nc2cncc([C@H]3CCCCN3)c2)c1=O [Example 186, (R)-4-amino-1-(4-(1,1-difluoroethyl)-2,6-dimethylphenyl)-6-oxo-N-(5-(piperidin-2-yl)pyridin-3-yl)-1,6-dihydropyrimidine-5-carboxamide] | 152 nM | 4.4 nM | 2.1 nM | 169 nM
CCOc1cc(Cl)c(-n2cnc(N)c(C(=O)Nc3cncc(C(C)N)c3)c2=O)c(Cl)c1 (single isomer, unassigned) [Example 142, (R)-4-amino-N-(5-(1-aminoethyl)pyridin-3-yl)-1-(2,6-dichloro-4-ethoxyphenyl)-6-oxo-1,6-dihydropyrimidine-5-carboxamide or (S)-4-amino-N-(5-(1-aminoethyl)pyridin-3-yl)-1-(2,6-dichloro-4-ethoxyphenyl)-6-oxo-1,6-dihydropyrimidine-5-carboxamide] | 350 nM | 9.8 nM | 4.7 nM | 421 nM
CC1CCC(c2cccc(NC(=O)c3c(N)ncn(-c4c(Cl)cccc4Cl)c3=O)c2)N1 (single isomer, unassigned) [Example 180, 4-amino-1-(2,6-dichlorophenyl)-N-(3-((2R,5R)-5-methylpyrrolidin-2-yl)phenyl)-6-oxo-1,6-dihydropyrimidine-5-carboxamide or 4-amino-1-(2,6-dichlorophenyl)-N-(3-((2S,5S)-5-methylpyrrolidin-2-yl)phenyl)-6-oxo-1,6-dihydropyrimidine-5-carboxamide] | 322 nM | 6.4 nM | 4.7 nM | 298 nM
Cc1cccc(Cl)c1-n1cnc(N)c(C(=O)Nc2cccc([C@@H]3CCCN3)c2F)c1=O (single isomer, unassigned) [Example 217, (S)-4-amino-1-((S)-2-chloro-6-methylphenyl)-N-(2-fluoro-3-(pyrrolidin-2-yl)phenyl)-6-oxo-1,6-dihydropyrimidine-5-carboxamide or (R)-4-amino-1-((S)-2-chloro-6-methylphenyl)-N-(2-fluoro-3-(pyrrolidin-2-yl)phenyl)-6-oxo-1,6-dihydropyrimidine-5-carboxamide] | 424 nM | 7.8 nM | 8 nM | 305 nM
COc1cc(Cl)c(-n2cnc(N)c(C(=O)Nc3cncc(C4COCCN4)c3)c2=O)c(Cl)c1 (single isomer, unassigned) [Example 212, (S)-4-amino-1-(2,6-dichloro-4-methoxyphenyl)-N-(5-(morpholin-3-yl)pyridin-3-yl)-6-oxo-1,6-dihydropyrimidine-5-carboxamide or (R)-4-amino-1-(2,6-dichloro-4-methoxyphenyl)-N-(5-(morpholin-3-yl)pyridin-3-yl)-6-oxo-1,6-dihydropyrimidine-5-carboxamide] | 520 nM | 4.7 nM | 7.6 nM | 272 nM
COCc1cc(C)c(-n2cnc(N)c(C(=O)Nc3cncc([C@H]4CCC[C@H](C)N4)c3)c2=O)c(C)c1 (single isomer, unassigned) [Example 102] | 584 nM | 16.5 nM | 5 nM | 684 nM
CNC(COC)c1cncc(NC(=O)c2c(N)ncn(-c3c(Cl)cc(C(F)(F)F)cc3Cl)c2=O)c1 (single isomer, unassigned) [Example 121, (R)-4-amino-1-(2,6-dichloro-4-(trifluoromethyl)phenyl)-N-(5-(2-methoxy-1-(methylamino)ethyl)pyridin-3-yl)-6-oxo-1,6-dihydropyrimidine-5-carboxamide or (S)-4-amino-1-(2,6-dichloro-4-(trifluoromethyl)phenyl)-N-(5-(2-methoxy-1-(methylamino)ethyl)pyridin-3-yl)-6-oxo-1,6-dihydropyrimidine-5-carboxamide] | 395 nM | 3.8 nM | 3.4 nM | 306 nM
C[C@H](N)c1cncc(NC(=O)c2c(N)ncn(-c3c(Cl)cc(C#N)cc3Cl)c2=O)c1 (single isomer, unassigned) [Example 43, (S)-4-amino-N-(5-(1-aminoethyl)pyridin-3-yl)-1-(2,6-dichloro-4-cyanophenyl)-6-oxo-1,6-dihydropyrimidine-5-carboxamide or (R)-4-amino-N-(5-(1-aminoethyl)pyridin-3-yl)-1-(2,6-dichloro-4-cyanophenyl)-6-oxo-1,6-dihydropyrimidine-5-carboxamide] | 285 nM | 4.9 nM | 5.4 nM | 283 nM
Nc1ncn(-c2c(Cl)cc(C(F)(F)F)cc2Cl)c(=O)c1C(=O)Nc1cncc(CNCCO)c1 [Example 23, 4-amino-1-(2,6-dichloro-4-(trifluoromethyl)phenyl)-N-(5-(((2-hydroxyethyl)amino)methyl)pyridin-3-yl)-6-oxo-1,6-dihydropyrimidine-5-carboxamide] | 239 nM | 5 nM | 4.3 nM | 343 nM
COc1cc(Cl)c(-n2cnc(N)c(C(=O)Nc3cncc([C@@H]4CCCCN4)c3)c2=O)c(Cl)c1 [Example 34, (S)-4-amino-1-(2,6-dichloro-4-methoxyphenyl)-6-oxo-N-(5-(piperidin-2-yl)pyridin-3-yl)-1,6-dihydropyrimidine-5-carboxamide] | 268 nM | 6.5 nM | 3.7 nM | 344 nM
